In ChEMBL document CHEMBL5131391, “One-pot three-component synthesis of novel pyrazolo[3,4-b]pyridines as potent antileukemic agents” (Eur J Med Chem, 2022):

Columns and labels:
Assay type in all cases: functional
SN12C = assay: Antiproliferative activity against human SN12C cells assessed as growth inhibition at 10 uM measured after 48 hrs by NCI protocol based SRB assay relative to control; settings: read-out: GI
MDA-MB-231 = assay: Antiproliferative activity against human MDA-MB-231 cells assessed as growth inhibition at 10 uM measured after 48 hrs by NCI protocol based SRB assay relative to control; settings: read-out: GI
RPMI-8226 = assay: Antiproliferative activity against human RPMI-8226 cells assessed as growth inhibition at 10 uM measured after 48 hrs by NCI protocol based SRB assay relative to control; settings: read-out: GI
UACC-62 = assay: Antiproliferative activity against human UACC-62 cells assessed as growth inhibition at 10 uM measured after 48 hrs by NCI protocol based SRB assay relative to control; settings: read-out: GI
SK-MEL-5 = assay: Antiproliferative activity against human SK-MEL-5 cells assessed as growth inhibition measured after 48 hrs by NCI protocol based SRB assay
OVCAR-4 = assay: Antiproliferative activity against human OVCAR-4 cells assessed as growth inhibition at 10 uM measured after 48 hrs by NCI protocol based SRB assay relative to control; settings: read-out: GI
SF-539 = assay: Cytostatic activity in human SF-539 cells assessed as tumor growth inhibition measured after 48 hrs by NCI protocol based SRB assay
MV4-11 = assay: Antiproliferative activity against human MV4-11 cells assessed as reduction in cell viability incubated for 72 hrs by resazurin dye based assay; settings: MV4-11, 72 h
NCI-H23 = assay: Antiproliferative activity against human NCI-H23 cells assessed as growth inhibition at 10 uM measured after 48 hrs by NCI protocol based SRB assay relative to control; settings: read-out: GI
LOX IMVI = assay: Antiproliferative activity against human LOX IMVI cells assessed as growth inhibition at 10 uM measured after 48 hrs by NCI protocol based SRB assay relative to control; settings: read-out: GI
NCI-H460 = assay: Antiproliferative activity against human NCI-H460 cells assessed as growth inhibition at 10 uM measured after 48 hrs by NCI protocol based SRB assay relative to control; settings: read-out: GI
A498 = assay: Antiproliferative activity against human A498 cells assessed as growth inhibition at 10 uM measured after 48 hrs by NCI protocol based SRB assay relative to control; settings: read-out: GI
PC-3 = assay: Antiproliferative activity against human PC-3 cells assessed as growth inhibition at 10 uM measured after 48 hrs by NCI protocol based SRB assay relative to control; settings: read-out: GI
Hs-578T = assay: Antiproliferative activity against human Hs-578T cells assessed as growth inhibition at 10 uM measured after 48 hrs by NCI protocol based SRB assay relative to control; settings: read-out: GI
Malme-3M = assay: Antiproliferative activity against human Malme-3M cells assessed as growth inhibition at 10 uM measured after 48 hrs by NCI protocol based SRB assay relative to control; settings: read-out: GI
OVCAR-5 [1] = assay: Antiproliferative activity against human OVCAR-5 cells assessed as growth inhibition measured after 48 hrs by NCI protocol based SRB assay
SK-MEL-28 = assay: Antiproliferative activity against human SK-MEL-28 cells assessed as growth inhibition at 10 uM measured after 48 hrs by NCI protocol based SRB assay relative to control; settings: read-out: GI
SK-OV-3 [2] = assay: Cytostatic activity in human SK-OV-3 cells assessed as tumor growth inhibition measured after 48 hrs by NCI protocol based SRB assay
NCI-H226 = assay: Cytostatic activity in human NCI-H226 cells assessed as tumor growth inhibition measured after 48 hrs by NCI protocol based SRB assay
HT-29 = assay: Antiproliferative activity against human HT-29 cells assessed as growth inhibition at 10 uM measured after 48 hrs by NCI protocol based SRB assay relative to control; settings: read-out: GI
SK-OV-3 [3] = assay: Antiproliferative activity against human SK-OV-3 cells assessed as growth inhibition at 10 uM measured after 48 hrs by NCI protocol based SRB assay relative to control; settings: read-out: GI
OVCAR-5 [4] = assay: Antiproliferative activity against human OVCAR-5 cells assessed as growth inhibition at 10 uM measured after 48 hrs by NCI protocol based SRB assay relative to control; settings: read-out: GI
UACC-257 = assay: Antiproliferative activity against human UACC-257 cells assessed as growth inhibition at 10 uM measured after 48 hrs by NCI protocol based SRB assay relative to control; settings: read-out: GI
MDA-MB-435 = assay: Antiproliferative activity against human MDA-MB-435 cells assessed as growth inhibition at 10 uM measured after 48 hrs by NCI protocol based SRB assay relative to control; settings: read-out: GI
EKVX [5] = assay: Antiproliferative activity against human EKVX cells assessed as growth inhibition measured after 48 hrs by NCI protocol based SRB assay
OVCAR-3 = assay: Antiproliferative activity against human OVCAR-3 cells assessed as growth inhibition at 10 uM measured after 48 hrs by NCI protocol based SRB assay relative to control; settings: read-out: GI
SF-268 = assay: Antiproliferative activity against human SF-268 cells assessed as growth inhibition measured after 48 hrs by NCI protocol based SRB assay
EKVX [6] = assay: Antiproliferative activity against human EKVX cells assessed as growth inhibition at 10 uM measured after 48 hrs by NCI protocol based SRB assay relative to control; settings: read-out: GI
T47D = assay: Cytostatic activity in human T47D cells assessed as tumor growth inhibition measured after 48 hrs by NCI protocol based SRB assay
UO-31 = assay: Antiproliferative activity against human UO-31 cells assessed as growth inhibition at 10 uM measured after 48 hrs by NCI protocol based SRB assay relative to control; settings: read-out: GI
NCI/ADR-RES = assay: Antiproliferative activity against human NCl/ADR-RES cells assessed as growth inhibition measured after 48 hrs by NCI protocol based SRB assay
HCC 2998 = assay: Antiproliferative activity against human HCC 2998 cells assessed as growth inhibition at 10 uM measured after 48 hrs by NCI protocol based SRB assay relative to control; settings: read-out: GI
SW-620 = assay: Antiproliferative activity against human SW-620 cells assessed as growth inhibition at 10 uM measured after 48 hrs by NCI protocol based SRB assay relative to control; settings: read-out: GI
HL-60(TB) = assay: Antiproliferative activity against human HL-60(TB) cells assessed as growth inhibition at 10 uM measured after 48 hrs by NCI protocol based SRB assay relative to control; settings: read-out: GI
RS4-11 = assay: Antiproliferative activity against human RS4-11 cells assessed as reduction in cell viability incubated for 72 hrs by resazurin dye based assay; settings: RS4-11, 72 h
KOPN-8 = assay: Antiproliferative activity against human KOPN-8 cells assessed as reduction in cell viability incubated for 72 hrs by resazurin dye based assay; settings: KOPN-8, 72 h
ML-2 = assay: Antiproliferative activity against human ML-2 cells assessed as reduction in cell viability incubated for 72 hrs by resazurin dye based assay; settings: ML-2, 72 h
[7] = read-out: LC50 (the source's name)

| Compound | inhibition of growth at 10 µM (SN12C) | inhibition of growth at 10 µM (MDA-MB-231) | inhibition of growth at 10 µM (RPMI-8226) | inhibition of growth at 10 µM (UACC-62) | inhibition of growth at 10 µM (OVCAR-4) | IC50 (MV4-11) | inhibition of growth at 10 µM (NCI-H23) | inhibition of growth at 10 µM (LOX IMVI) | inhibition of growth at 10 µM (NCI-H460) | inhibition of growth at 10 µM (A498) | inhibition of growth at 10 µM (PC-3) | inhibition of growth at 10 µM (Hs-578T) | inhibition of growth at 10 µM (Malme-3M) | inhibition of growth at 10 µM (SK-MEL-28) | inhibition of growth at 10 µM (UACC-257) | inhibition of growth at 10 µM (MDA-MB-435) | inhibition of growth at 10 µM (OVCAR-3) | inhibition of growth at 10 µM (EKVX [6]) | inhibition of growth at 10 µM (UO-31) | inhibition of growth at 10 µM (SW-620) | further results |
| --- | --- | --- | --- | --- | --- | --- | --- | --- | --- | --- | --- | --- | --- | --- | --- | --- | --- | --- | --- | --- | --- |
| N#Cc1c(-c2ccccc2)nc2c(c(-c3ccccc3)nn2-c2ccccc2)c1-c1ccc(O)cc1 | 39% | 77% | 87% | 39% | 28% | 26.1 µM | 56% | 148% | 91% | 101% | 96% | 85% | 57% | 51% | 29% | 49% | 46% | 55% | 73% | 84% | GI50 (SK-MEL-5): 1.75 µM; CC50 (SK-MEL-5; [7]): 5.79 µM; TGI (SF-539): 2.76 µM; GI50 (OVCAR-5 [1]): 1.75 µM; CC50 (OVCAR-5 [1]; [7]): 6.66 µM; TGI (SK-OV-3 [2]): 8.48 µM; TGI (NCI-H226): 4.51 µM; inhibition of growth at 10 µM (HT-29): 16%; inhibition of growth at 10 µM (SK-OV-3 [3]): 29%; inhibition of growth at 10 µM (OVCAR-5 [4]): 19%; GI50 (EKVX [5]): 1.92 µM; CC50 (EKVX [5]; [7]): 21.9 µM; GI50 (SF-268): 2.83 µM; CC50 (SF-268; [7]): 47.2 µM; TGI (T47D): 23.8 µM; GI50 (NCI/ADR-RES): 2.27 µM; CC50 (NCI/ADR-RES; [7]): 2.95 µM; inhibition of growth at 10 µM (HCC 2998): 28% |
| N#Cc1c(-c2ccc(Cl)cc2)nc2c(c(-c3ccccc3)nn2-c2ccccc2)c1-c1ccc(O)cc1 | 118% | 64% | 83% | 47% | 36% | 25.1 µM | 52% | 74% | 75% | 21% | 89% | 74% | 39% | 44% | 15% | 52% | 52% | 33% | 70% | 46% | inhibition of growth at 10 µM (OVCAR-5 [4]): 17%; inhibition of growth at 10 µM (HL-60(TB)): 68%; inhibition of growth at 10 µM (HCC 2998): 16% |
| Cc1ccc(-c2nc3c(c(-c4ccccc4)nn3-c3ccccc3)c(-c3ccc(O)cc3)c2C#N)cc1 | 47% | 55% | 79% | 37% | 18% | 3.3 µM | 33% | 88% | 73% | 56% | 66% | 77% | 25% | 33% |  | 36% | 36% | 26% | 61% | 38% | IC50 (RS4-11): 2.7 µM; IC50 (KOPN-8): 0.3 µM; inhibition of growth at 10 µM (HL-60(TB)): 68%; IC50 (ML-2): 1.4 µM |
| N#Cc1c(-c2ccco2)nc2c(c(-c3ccccc3)nn2-c2ccccc2)c1-c1ccc(O)cc1 | 18% | 18% | 45% | 11% | 23% | 13.8 µM |  |  | 51% |  | 77% | 47% | 66% | 24% | 40% | 38% | 14% | 44% |  | 53% | inhibition of growth at 10 µM (HT-29): 70%; IC50 (RS4-11): 15.1 µM; inhibition of growth at 10 µM (SK-OV-3 [3]): 54%; IC50 (KOPN-8): 10 µM; inhibition of growth at 10 µM (HL-60(TB)): 78%; IC50 (ML-2): 12.8 µM |
| COc1cc(-c2c(C#N)c(-c3ccccc3)nc3c2c(-c2ccccc2)nn3-c2ccccc2)ccc1O | 32% | 28% | 40% | 12% | 34% | > 50 µM | 26% | 26% | 38% |  | 49% | 32% | 43% | 19% |  | 32% | 23% | 18% | 32% | 22% |  |
